# Test results reported in article PMC9154774, “4-(3-Alkyl/benzyl-guanidino)benzenesulfonamides as selective carbonic anhydrase VII inhibitors” (Journal of Enzyme Inhibition and Medicinal Chemistry, 2022).
# Assays:
# Assay in all cases: stopped-flow CO2 hydration assay, phenol red
# Assay type in all cases: biochemical
# CA II (hCA II) = target: T1, CA II (hCA II) (Homo sapiens, UniProt P00918)
# T1 construct: gene CA2; recombinant, obtained in-house as reported earlier
# Text: stopped-flow CO2 hydration assay, phenol red on CA II (hCA II)
# CA VII (hCA VII) = target: T2, CA VII (hCA VII) (Homo sapiens, UniProt P43166)
# T2 construct: gene CA7; recombinant, obtained in-house as reported earlier
# T2 sequence (P43166 whole entry): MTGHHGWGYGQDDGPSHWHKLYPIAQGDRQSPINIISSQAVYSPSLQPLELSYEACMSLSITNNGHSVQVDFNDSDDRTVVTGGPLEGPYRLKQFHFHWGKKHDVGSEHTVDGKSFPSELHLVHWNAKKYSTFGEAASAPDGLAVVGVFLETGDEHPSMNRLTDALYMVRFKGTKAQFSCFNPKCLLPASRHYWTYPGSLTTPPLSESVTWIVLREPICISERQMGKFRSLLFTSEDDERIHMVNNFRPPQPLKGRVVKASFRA
# Text: stopped-flow CO2 hydration assay, phenol red on CA VII (hCA VII)
# CA I (hCA I) = target: T3, CA I (hCA I) (Homo sapiens, UniProt P00915)
# T3 construct: gene CA1; recombinant, obtained in-house as reported earlier
# T3 sequence (P00915 2-261): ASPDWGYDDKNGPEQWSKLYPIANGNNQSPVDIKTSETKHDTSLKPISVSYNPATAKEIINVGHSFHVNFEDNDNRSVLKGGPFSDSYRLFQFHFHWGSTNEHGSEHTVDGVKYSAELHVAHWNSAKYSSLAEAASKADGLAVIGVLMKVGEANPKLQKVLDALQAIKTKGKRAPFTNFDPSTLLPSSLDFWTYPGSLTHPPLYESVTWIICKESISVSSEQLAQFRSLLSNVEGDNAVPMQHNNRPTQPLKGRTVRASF
# Text: stopped-flow CO2 hydration assay, phenol red on CA I (hCA I)
Ki (CA II (hCA II)),Ki (CA VII (hCA VII)),Ki (CA I (hCA I)),Compound
7.7 nM,10.1 nM,746 nM,"N=C(NCc1ccccc1)Nc1ccc(S(N)(=O)=O)cc1 [7a, 4-(3-Benzyl-guanidino)benzenesulfonamide]"
17.7 nM,25.1 nM,699 nM,"COc1ccc(CNC(=N)Nc2ccc(S(N)(=O)=O)cc2)cc1 [7b, 4-(3-(4-Methoxybenzyl)guanidino)benzenesulfonamide]"
59.1 nM,15 nM,989 nM,"N=C(NCc1ccc(F)cc1)Nc1ccc(S(N)(=O)=O)cc1 [7c, 4-(3-(4-Fluorobenzyl)guanidino)benzenesulfonamide]"
1.6 nM,60.7 nM,782 nM,"N=C(NCc1cccc(F)c1)Nc1ccc(S(N)(=O)=O)cc1 [7d, 4-(3-(3-Fluorobenzyl)guanidino)benzenesulfonamide]"
3.2 nM,44.9 nM,2990 nM,"N=C(NCc1ccccc1F)Nc1ccc(S(N)(=O)=O)cc1 [7e, 4-(3-(2-Fluorobenzyl)guanidino)benzenesulfonamide]"
0.3 nM,0.9 nM,2930 nM,"Cc1cccc(CNC(=N)Nc2ccc(S(N)(=O)=O)cc2)c1 [7f, 4-(3-(3-Methylbenzyl)guanidino)benzenesulfonamide]"
0.07 nM,0.4 nM,3160 nM,"Cc1ccccc1CNC(=N)Nc1ccc(S(N)(=O)=O)cc1 [7g, 4-(3-(2-Methylbenzyl)guanidino)benzenesulfonamide]"
9.6 nM,1.1 nM,1320 nM,"CC(NC(=N)Nc1ccc(S(N)(=O)=O)cc1)c1ccccc1 (stereo not drawn) [7h, 4-(3-(1-Phenylethyl)guanidino)benzenesulfonamide]"
0.08 nM,0.7 nM,1140 nM,"Cc1cccc(CN(C)C(=N)Nc2ccc(S(N)(=O)=O)cc2)c1 [7i, 4-(3-Methyl-3-(3-methylbenzyl)guanidino)benzenesulfonamide]"
0.6 nM,3.2 nM,5850 nM,"N=C(Nc1ccc(S(N)(=O)=O)cc1)N(Cc1ccccc1)Cc1ccccc1 [7j, 4-(3,3-Dibenzyl-guanidino)benzenesulfonamide]"
6.9 nM,8.7 nM,4180 nM,"N=C(NCCOc1ccccc1)Nc1ccc(S(N)(=O)=O)cc1 [7k, 4-(3-(2-Phenoxyethyl)guanidino)benzenesulfonamide]"
0.9 nM,2.2 nM,730 nM,"CCCCCCCCNC(=N)Nc1ccc(S(N)(=O)=O)cc1 [7l, 4-(3-octylguanidino)benzenesulfonamide]"
0.4 nM,0.2 nM,930 nM,"CCCCCCCCCCCCNC(=N)Nc1ccc(S(N)(=O)=O)cc1 [7m, 4–(3-Dodecylguanidino)benzenesulfonamide]"
0.06 nM,0.08 nM,2150 nM,"CCCCCCCCCCCCCCCCNC(=N)Nc1ccc(S(N)(=O)=O)cc1 [7n, 4-(3-hexadecylguanidino)benzenesulfonamide]"
0.1 nM,0.06 nM,3680 nM,"N=C(Nc1ccc(S(N)(=O)=O)cc1)N1CCN(Cc2ccccc2)CC1 [7o, 4-Benzyl-N-(4-sulfamoylphenyl)piperazine-1-carboximidamide]"
